Data reported in US20260021092A1, “STRUCTURE-BASED DESIGN OF A NOVEL CLASS OF DRUGS FOR NEURODEGENERATIVE DISEASE” (The Regents of the University of California, priority 2022, published 2026).

Tests used:
[1] = target: T1, recombinant alpha-synuclein fibrils seeding HEK293T cells expressing YFP-fused A53T alpha-synuclein (Homo sapiens, UniProt P37840); test: Alpha-synuclein biosensor cell seeding assay, recombinant fibrils; format: cell-based; set-up: number of fluorescent puncta (seeded aggregates): dose or concentration left out as unconfirmed; settings: for number of fluorescent puncta (seeded aggregates): 48 hours pre-incubation
T1 construct: made in house; host or cells: seed: E. coli BL21(DE3) Gold; reporter: stably transfected HEK293T cells from the Marc Diamond lab
Excerpt: It is thought that alpha-synuclein pathology propagates throughout the brain via a prion-like seeding mechanism^20. Alpha-synuclein aggregates in one cell can fragment and spread to neighboring cells, where they seed the aggregation of soluble protein. Molecules able to disaggregate pre-formed fibrils may be able to interrupt this process. To that end, we assessed if both compounds could mitigate intracellular seeding of αSyn fibrils using alpha-synuclein biosensor cells-HEK293T cells expressing A53T mutant alpha-synuclein fused with yellow fluorescent protein (YFP). At baseline, the fluorescently labeled alpha-synuclein remains soluble within the cell, visible as diffuse fluorescence. However, the liposome-mediated transduction of exogenous αSyn fibrils into the cells induces aggregation of the endogenous protein, and the aggregates can be visualized and quantified as fluorescent puncta within the cell.
HEK293T biosensor cells stably expressing YFP-fused A53T mutant alpha-synuclein, developed and provided by the lab of Marc Diamond at UTSW were used. […] Prior to adding to cells, the coincubated compound/fibril solution was sonicated for 5 minutes in a cuphorn water bath, then mixed for 20 minutes with Lipofectamine 2000 in OptiMEM (1:20 dilution) for 20 minutes. 10 uL of the inhibitor/fibril+Lipofectamine mixture was added to 90 uL of cells plated in black 96-well tissue culture plates in triplicate for each concentration of compound tested. The number of seeded aggregates was quantified using a Celigo Image Cytometer (Nexcelom) in the YFP channel. Images were processed in ImageJ, background fluorescence from unseeded cells was subtracted, and the number of particles per image were counted using the Particle Analyzer function. The quantity of aggregates in each well was normalized to cell confluence. Standard deviation between triplicates and a nonlinear regression curve was used to calculate IC50 values for dose response curves. High quality fluorescent images were obtained using a ZEISS Axio Observer D1 fluorescence microscope in the YFP channel.

[2] = target: T2, recombinant alpha-synuclein fibrils (Homo sapiens, UniProt P37840); test: TEM quantification of recombinant alpha-synuclein fibrils; format: biochemical; settings: 72 hours with compound, 10 micrographs
T2 construct: made in house; host or cells: E. coli BL21(DE3) Gold
Protocol: Both compounds were incubated with equimolar ratios of recombinant alpha-synuclein fibrils (100 μM:100 μM) for 48 hours at 37° C. in 1×PBS. After incubation, Thioflavin T (ThT), a fluorescent marker of amyloid fibrils, was added to the samples and ThT fluorescence was measured. EGCG was used as a positive control for comparison. […] Next, transmission electron microscopy (EM) was performed for each sample. […] To obtain a quantitative evaluation of fibril reduction, fibrils were first incubated for 72 hours with compound, then 10 micrographs from random grid points were taken for each sample, and the numbers of fibrils per image were counted (FIG. 5c). […] Western blot analysis, staining for alpha-synuclein, was performed for fibril samples incubated with compounds for 48 hours (FIG. 5d). For untreated alpha-synuclein fibrils, we see a prominent band at 14 kDa corresponding with protein monomer. […]
For all transmission electron microscopy (TEM), 6 μL of sample were added onto 400 mesh Formvar Carbon film copper mesh grids (Electron Microscopy Sciences), then incubated for four minutes. […] For quantitation of fibrils, […] TEM images were taken per experimental condition from random points throughout the grid. Fibril counts were manually quantified per image in a blinded fashion. […]

[3] = target: T3, MSA brain fibrils seeding HEK293T alpha-synuclein biosensor cells (Homo sapiens, UniProt P37840); test: Alpha-synuclein biosensor cell seeding assay, MSA brain fibrils; format: cell-based; settings: sub micromolar concentrations, 48 hours pre-incubation
T3 construct: Extraction of sarkosyl-insoluble alpha-synuclein fibrils from neuropathologically confirmed brain samples of patients diagnosed with MSA; from tissue; host or cells: seed: MSA patient brain; reporter: stably transfected HEK293T cells from the Marc Diamond lab
Protocol: Next, we tested the efficacy of the compounds to mitigate the intracellular seeding of MSA fibrils in biosensor cells. Brain-derived MSA fibrils robustly seed intracellular alpha-synuclein in HEK293T biosensor cells^21. […] Cells were imaged 48 hours and the number of fluorescent puncta per sample well was quantified.
HEK293T biosensor cells stably expressing YFP-fused A53T mutant alpha-synuclein, developed and provided by the lab of Marc Diamond at UTSW were used. Cells were grown in DMEM (Life Technologies, cat. 11965092) with FBS (10% vol/vol; Life Technologies, cat. A3160401), penicillin/streptomycin (1%; Life Technologies, cat. 15140122), and Glutamax (1%; Life Technologies, cat. 35050061), at 37° C. and 5% CO2 in a humidified incubator. Compounds were incubated with recombinant or patient-derived alpha-synuclein fibrils for 48 hours in OptiMEM media then applied to ˜70% confluent biosensor cells. Prior to adding to cells, the coincubated compound/fibril solution was sonicated for 5 minutes in a cuphorn water bath, then mixed for 20 minutes with Lipofectamine 2000 in OptiMEM (1:20 dilution) for 20 minutes. 10 uL of the inhibitor/fibril+Lipofectamine mixture was added to 90 uL of cells plated in black 96-well tissue culture plates in triplicate for each concentration of compound tested. The number of seeded aggregates was quantified using a Celigo Image Cytometer (Nexcelom) in the YFP channel. Images were processed in ImageJ, background fluorescence from unseeded cells was subtracted, and the number of particles per image were counted using the Particle Analyzer function. The quantity of aggregates in each well was normalized to cell confluence. Standard deviation between triplicates and a nonlinear regression curve was used to calculate IC50 values for dose response curves. High quality fluorescent images were obtained using a ZEISS Axio Observer D1 fluorescence microscope in the YFP channel. […]

[4] = target: T2, recombinant alpha-synuclein fibrils; test: Thioflavin T fluorescence of alpha-synuclein fibrils; format: biochemical; settings: equimolar 100 μM:100 μM, 48 hours at 37° C. in 1×PBS
Protocol: Both compounds were incubated with equimolar ratios of recombinant alpha-synuclein fibrils (100 μM:100 μM) for 48 hours at 37° C. in 1×PBS. After incubation, Thioflavin T (ThT), a fluorescent marker of amyloid fibrils, was added to the samples and ThT fluorescence was measured. EGCG was used as a positive control for comparison. […] Next, transmission electron microscopy (EM) was performed for each sample. […] To obtain a quantitative evaluation of fibril reduction, fibrils were first incubated for 72 hours with compound, then 10 micrographs from random grid points were taken for each sample, and the numbers of fibrils per image were counted (FIG. 5c). […] Western blot analysis, staining for alpha-synuclein, was performed for fibril samples incubated with compounds for 48 hours (FIG. 5d). For untreated alpha-synuclein fibrils, we see a prominent band at 14 kDa corresponding with protein monomer. We also observe a large smear of higher molecular weight alpha-synuclein species, likely corresponding to oligomers or small fibrils, and a dark band at the top of the gel likely from larger fibrils. […] These physical and chemical properties are more predictive of oral bioavailability and central nervous system penetration compared to EGCG, making them more viable candidates for further drug development.
Compounds were incubated quiescently with fibril samples (both recombinant and brain-derived) for 72 hours at 37° C.

Row | SMILES | number of fluorescent puncta (seeded aggregates) [1] | seeding at low compound concentrations [1] | number of imaged fibrils per EM image [2] | intracellular seeding by MSA brain fibrils [3] | ThT signal [4]
1 | Cc1cc(C)c(NC(=O)Cn2nc3c4c(cccc4c2=O)-c2ccccc2-3)c(C)c1 [CNS-11, N-mesityl-2-(3-oxoindeno[1,2,3-de]phthalazin-2(3H)-yl)acetamide] | dose-dependent reduction in aggregates | initial increase of seeding | reduction in number of imaged fibrils | very significant reduction in intracellular seeding | reduction in ThT signal
2 | Cc1cccc(C)c1NC(=O)Cn1nc(Cc2ccccc2)c2ccccc2c1=O [CNS-11g, 2-(4-benzyl-1-oxophthalazin-2-yl)-N-(2,6-dimethylphenyl)acetamide] | dose-dependent reduction in aggregates | not seen | reduction in number of imaged fibrils | very significant reduction in intracellular seeding | reduction in ThT signal
3 | O=C(O[C@@H]1Cc2c(O)cc(O)cc2O[C@@H]1c1cc(O)c(O)c(O)c1)c1cc(O)c(O)c(O)c1 [EGCG, epigallocatechin gallate] | dose-dependent reduction | – | – | very significant reduction in intracellular seeding | reduction in ThT signal
